{"source": "paper PMC13126677", "about": "(Journal of Medicinal Chemistry, 2026)", "key": {"E. romani venom [1]": {"tested_on": "E. romani venom", "details": "30 mg/kg single oral dosing; ref not given; cited from earlier work"}, "[2]": {"tested_on": "SVMP activity of Echis romani venom", "details": "read-out: ERO EC50; E. romani venom; ref not given; cited from earlier work"}, "[3]": {"tested_on": "SVMP activity of Calloselasma rhodostoma venom", "details": "read-out: Inhibition of SVMP enzymatic activity EC50 CRH; C. rhodostoma venom; mean of n ≥ 3, range in brackets", "procedure": "(§1) Throughout our medicinal chemistry campaign, compounds were evaluated for their ability to inhibit enzymatic SVMP toxin activity in vitro using a previously described fluorescent-based substrate cleavage assay against five medically important viper venoms, namely Echis romani (Roman’s carpet viper, West Africa), Crotalus atrox (Western diamondback rattlesnake, North America), Calloselasma rhodostoma (Malayan pit viper, South East Asia), Bothrops jararaca (jararaca, South America) and Bitis arietans (puff adder, Africa).\n(§2) Compounds of interest were stamped onto 384-well plates at a volume of 0.91 μL at a concentration of 1 mM in 100% DMSO (D2650, Sigma-Aldrich). Positive and negative control wells were stamped with 0.91 μL of 100% DMSO. To the test wells and the venom-only positive control wells, 15 μL of venom diluted to 0.066 μg/mL in PBS was added, giving a final amount of 1 μg/well. In the no venom negative control wells, 15 μL of PBS was added. The plates were then sealed, span briefly in a Platefuge (C2000, Benchmark Scientific) and incubated at 37 °C for 25 min to allow venom-inhibitor interaction. […] Dose response plates were conducted identically and the % inhibition values at each dose were used to draw EC50 curves to estimate the EC50 value of each compound tested. All SVMP experiments were repeated independently a minimum of three times."}, "[4]": {"tested_on": "SVMP activity of Bothrops jararaca venom", "details": "read-out: Inhibition of SVMP enzymatic activity EC50 BJA; B. jararaca venom; mean of n ≥ 3, range in brackets", "procedure": "as §1, §2"}, "[5]": {"tested_on": "E. romani P–I and P–III SVMPs", "details": "drug 2 μM, gel", "procedure": "(§3) Evaluation of SVMP toxin activity of human prothrombin and fibrinogen and inhibition by test compounds was performed by SDS-PAGE degradation gel electrophoresis using venom-purified toxins. P–I, P–II and P–III SVMPs were isolated using an adaptation of the method of Howes et al. Whole E. romani venom (15 mg) was initially separated using size exclusion chromatography (SEC) on a 120 mL column of Superdex 75 (Cytiva). The P–II SVMP (22 kDa) was pure and ready to use at this stage. P–I and P–III SVMP containing peaks were separately applied to a 1 mL high resolution hydrophobic interaction chromatography (HIC) column (SOURCE 15PHE, Cytiva). […] The P–I eluted as two peaks of proteins with identical molecular weight (21 kDa) which were combined back together. The P–III-containing fraction from SEC eluted from HIC as multiple peaks of P–III SVMP isoforms, well separated from the earlier eluting L-amino acid oxidase and high molecular weight C-type lectin-like proteins. The proteins in the PIII-containing peaks were pooled back together.\nProthrombin degradation was measured by incubating 2 μg of human prothrombin (Hematologic Technologies INC) in the presence or absence of drug and the P–I, P–II, and P–III SVMPs. […] Briefly, drug or DMSO and 200 ng of purified SVMP isoform were incubated for 30 min at 37 °C in a water bath, after which 2 μg of human prothrombin were added and the samples incubated for another hour at 37 °C. Drug concentrations used were 2 μM for P–I and P–III SVMPs. Samples were then processed for loading onto a 4–20% SDS-PAGE gel (Biorad) and were run under reducing conditions for 45 min at 180 V. The gels were stained with Coomassie Brilliant Blue R250 and degradation profiles were visualized and images captured using a GelDoc (Biorad)."}, "[6]": {"tested_on": "thrombin-antithrombin (TAT) complexes", "procedure": "Blood samples were collected from mice via cardiac puncture immediately following euthanasia. Samples were centrifuged at 1400 × g for 10 min at 4 °C, and the plasma supernatant stored at −80 °C until use. Plasma TAT levels were determined using a sandwich ELISA provided as a commercial kit (Abcam, ab137994). Mouse plasma samples were diluted 1:150 using Diluent M and were run in duplicate alongside a standard curve. Each well received 50 μL diluted plasma and was incubated for 2 h at room temperature to allow for the reaction with the TAT complexes antibodies coated onto the plate. After five washes, 50 μL of biotinylated mouse TAT complexes antibodies were added to the plate and the reaction allowed to proceed for another 2 h. Following another five washes, 50 μL of a streptavidin-peroxidase conjugate were added to the plate and incubated for another 30 min. Next, 50 μL of a chromogenic substrate (3,3′,5,5′-tetramethylbenzidine) was added to the plate and the peroxidase-dependent reaction allowed to proceed until a clear blue color formed in the well. At this point 50 μL of stop solution was added and the absorbance read immediately at 450 and 570 nm. The 570 nm absorbance readings were subtracted from the 450 nm ones, and the levels of TAT complexes (ng/mL) extrapolated based on the standard curve."}, "physchem [7]": {"assay": "physchem", "details": "organic solvent / aqueous solvent at pH 7.4, pH 7.4", "procedure": "(§4) The DMPK properties data described in the manuscript were measured via a high-throughput platform by AstraZeneca (United Kingdom)."}, "[8]": {"tested_on": "procoagulant activity of B. jararaca venom", "details": "read-out: Coagulation assay EC50 B. jararaca; 100 ng B. jararaca venom, citrated bovine plasma; mean of n ≥ 3, range in brackets", "procedure": "(§5) This assay consists of preincubating venom (or venom vehicle control) at a species-specific dose with the compound of interest (or compound vehicle control), then adding citrated bovine plasma to the wells and activating the clotting cascade with calcium chloride. […] Compounds of interest were stamped onto 384-well plates at a volume of 0.5 μL and a concentration of 10 mM in 100% DMSO. Positive and negative control wells were stamped with 0.5 μL of 100% DMSO. To the test wells and the venom-only positive control wells, 10 μL of venom diluted to 1 μg/mL (E. romani) or 10 μg/mL (B. jararaca) in PBS was added, giving a final well amount of 10 ng (E. romani) or 100 ng (B. jararaca) per well. In the no venom negative control wells, 10 μL of PBS was added. The plates were then sealed, span briefly in a Platefuge and incubated at 37 °C for 25 min to allow venom-inhibitor interaction. While the plates were incubating, sufficient citrated bovine plasma (S0260, BioWest) to allow 20 μL/well was centrifuged at 3120 RCF for 5 min to remove any residual cellular debris and the supernatant was collected. The 384-well plates were removed from the incubator for 5 min to allow acclimation to room temperature, then 20 μL/well of 20 mM CaCl2 was added and immediately followed by the addition of 20 μL/well of centrifuged citrated bovine plasma, both via a Multidrop Combi reagent dispenser (5840330, Thermo Fisher Scientific). The plates were then read kinetically using an absorbance protocol on a CLARIOStar microplate reader at 595 nm for 60 min. […] Dose response plates were conducted identically and the % inhibition values at each dose were used to draw EC50 curves to estimate the EC50 value of each compound tested. All coagulation experiments were repeated independently a minimum of three times."}, "[9]": {"tested_on": "E. romani venom in human whole blood", "details": "venom 60 ng plus drug 5 μM; mean", "procedure": "We measured the coagulation profile of whole human blood using thromboelastography, and compared with venom stimulated, and venom and drug stimulated, clotting profiles. […] Blood samples were collected in ACD-A blood tubes. Using a ROTEM delta (Werfen) a final volume of 300 μL blood per reaction was pipetted into prewarmed cups (37 °C), with four channels per run. Whole blood was warmed for 5 min at 37 °C, during which time 12 μL of E. romani venom (5 ng/nL concentration, 60 ng dose), 15 μL of DMSO vehicle or test compounds (5 μM final concentration, 0.2% DMSO), and 20 μL of Startem reagent (CaCl2, Werfen) was prepared. The maximum incubation time of venom and inhibitors was 2 min, before 253 μL of whole blood were added and mixed before reading on the ROTEM delta. The commonly used parameters of clotting time and maximum clot firmness (MCF) were reported, from a minimum of three independent measurements per experimental group."}, "E. romani venom [10]": {"tested_on": "E. romani venom", "details": "venom 10 μg/egg, drug 1 μg/egg topical, 6 h; in words", "procedure": "Fertile hens eggs were supplied on day 1 post fertilization from UK supplier MedEggs Ltd. Eggs were immediately placed horizontally to incubate at 37 °C until day 5 of development. Candling was conducted to mark the position of the embryo to guide windowing. Any infertile eggs were removed at this stage. To access the embryos, all fertile eggs were then windowed under laminar flow. In brief, 6–8 mL of albumin was removed using a 23G needle. The area marking the position of the embryo was then covered with medical tape, and a dish of shell removed using sharp dissection scissors. The exposed embryo was then covered using parafilm and the egg returned to the incubator overnight. Surviving embryos were then randomly allocated into groups of n = 5. […] Treatments were given in a total volume of 10 μL, administered directly onto (i.e., topically) the vitelline vein. Embryos were returned to the incubator immediately following dosing, and then observed at 1, 2, 4, and 6 h. Survival was monitored via the observation of a heartbeat. Venom pathology was captured using a Motic SMZ 171-TLED microscope system. In brief, at each observation time point (1, 2, 4, and 6 h post envenoming) images were captured using a Moticam X5 Wi-Fi camera. To track changes across the experimental time course, the imaging position was kept consistent at each time point for individual embryos."}, "[11]": {"tested_on": "mouse fibrinogen and prothrombin", "details": "in words", "procedure": "Mouse plasma samples were diluted 1:50 (antifibrinogen blots) and 1:30 (antiprothrombin blots) and 5 μL was run on 4–20% SDS-PAGE gels (BioRad) at 180 V for 1 h. The separated proteins were then transferred onto nitrocellulose membranes using semidry transfer on a Trans-Blot Turbo (BioRad) using the following conditions: 1.3 A, 25 V, 7 min. Blots were then stained for 5 min with Revert 700 Total Protein Stain (LICORbio) following the manufacturer’s protocol and imaged on the 700 nm channel on an Odyssey Fc Imaging System to detect protein abundance and ensure equal loading. Membranes were then destained in 0.1 M NaOH, 30% methanol for no longer than 10 min, then blocked in 5% milk TBST for 1 h. The primary antibodies: antifibrinogen (ab34269, rabbit polyclonal, Abcam) and antiprothrombin (PA5-77976, rabbit polyclonal, Thermo Fisher) were diluted 1:1,500 and 1:1,000, respectively, in 5% milk TBST. The membranes were incubated with the appropriate primary antibody for 1.5 h at room temperature, followed by three 5 min washes in TBST. Blots were then incubated for 1 h at room temperature with an IRDye 800CW donkey anti-rabbit IgG secondary antibody (1:15000, LICORbio), followed by three 5 min washes in TBS. The blots were imaged on an Odyssey Fc Imaging System at both 700 and 800 nm."}, "in vitro [12]": {"assay": "in vitro", "details": "rat, hepatocytes", "procedure": "as §4"}, "[13]": {"tested_on": "E. romani P–I, P–II and P–III SVMPs", "details": "P–I, P–II, P–III SVMPs; drug 10 μM (P–I, P–II), 400 nM (P–III); gel", "procedure": "as §3\nDegradation of human fibrinogen was measured in a similar manner. Human fibrinogen (Merck) was added at 5 μg/reaction and incubated with the different SVMP isoforms in the presence or absence of drugs. Drug concentrations used were 10 μM for P–I and P–II SVMP and 400 nM for P–III SVMP. The reactions consisted of 200 ng SVMP isoform and the appropriate concentration of drug, which were then incubated for 30 min at 37 °C in a water bath. Five micrograms of fibrinogen were then added and the samples incubated for another hour at 37 °C, before separation by SDS-PAGE as described above."}, "[14]": {"tested_on": "procoagulant activity of E. romani venom", "details": "read-out: Coagulation assay EC50 E. romani; 10 ng E. romani venom, citrated bovine plasma; mean of n ≥ 3, range in brackets", "procedure": "as §5"}, "[15]": {"tested_on": "SVMP activity of Bitis arietans venom", "details": "read-out: Inhibition of SVMP enzymatic activity EC50 BAR; B. arietans venom; mean of n ≥ 3, range in brackets", "procedure": "as §1, §2"}, "in vivo": {"assay": "in vivo", "details": "male, CD1, mouse, plasma, po, 20 mg/kg", "procedure": "(§6) The in vivo PK study was performed by ChemPartner (Shanghai, China). […] Mice had access to food and water throughout the pre- and postdose sampling period. […] Approximately 110 μL whole blood/time point (sampling at 0.083, 0.25, 0.5, 1, 2, 4, 8, and 24 h) was collected via serial bleeding in K2EDTA tube via facial vein. The blood sample was kept on ice and centrifuged (2,000 × g, 4 °C, 5 min) within 15 min postsampling. The plasma drug concentrations were determined by LC-MS/MS (ESI, Triple Quad 5500 System) on positive ion mode and using dexamethasone as internal standard. Liquid chromatography (LC) was performed using a 2.5 μm Xbridge BEH-C18 column (2.1 mm × 50 mm) at 60 °C with a rate of 0.6 mL/min. The following mobile phases were used; A: Water (+0.025% Formic acid and 1.0 mM ammonium acetate), B: Methanol (+0.025% Formic acid and 1.0 mM ammonium acetate)."}, "[16]": {"details": "mouse", "procedure": "as §6"}, "physchem [17]": {"assay": "physchem", "details": "aqueous medium at pH 7.4, pH 7.4, aqueous buffer", "procedure": "as §4"}, "E. romani venom [18]": {"tested_on": "E. romani venom", "procedure": "Room conditions were set at 20–24 °C and 45–65% humidity, 12/12 h light cycles. Mice were allowed ad libitum access to Picolab 5R53 food (Lab Diet, USA) and reverse osmosis water and housed with nesting material and environmental enrichment materials.\nMice weighed 22–28 g at the start of study. Five milligram or kilogram morphine was administered subcutaneously as an analgesic 15 min prior to venom administration. […] No criteria for including or excluding animals was applied, and all data points were included in analyses. Animals were monitored for humane end points (loss of righting reflex, seizure, external hemorrhage) for 8 h to encompass the drug exposure time frame, and any animals showing such signs were immediately euthanized by rising concentrations of carbon dioxide. All observations were performed by mixed gender experimenters who were blinded to the drug group allocation. Time of death, number of deaths and number of survivors were recorded, where deaths and times of death represent implementation of humane end point-dictated euthanasia. Kaplan–Meier survival plots were generated using GraphPad Prism 9.0 (GraphPad Software, San Diego, USA)."}, "[19]": {"tested_on": "SVMP activity of Echis romani venom", "details": "read-out: Inhibition of SVMP enzymatic activity EC50 ERO; E. romani venom; mean of n ≥ 3, range in brackets; listed as 23 (DC-174)", "procedure": "as §1, §2"}, "[20]": {"tested_on": "SVMP activity of five viper venoms (E. romani, C. atrox, C. rhodostoma, B. jararaca, B. arietans)", "details": "read-out: broad-spectrum inhibition of SVMP activity EC50s; range over the five venoms", "procedure": "as §1, §2"}, "in vitro [21]": {"assay": "in vitro", "details": "human, microsomes", "procedure": "as §4"}, "[22]": {"tested_on": "SVMP activity of Crotalus atrox venom", "details": "read-out: Inhibition of SVMP enzymatic activity EC50 CAT; C. atrox venom; mean of n ≥ 3, range in brackets", "procedure": "as §1, §2"}}, "note": "pEC50: −log10 of the molar value. Read-outs that look alike come from different tables or passages of the source."}
{"molecule": "O=S(=O)(O)CC(S)CS", "note": "(stereo not shown) [DMPS, 2,3-dimercapto-1-propanesulfonic acid]", "values": [{"measurement": "oral dosing murine survival at 8 h", "setting": "E. romani venom [1]", "value": 40, "unit": "%"}, {"measurement": "pEC50", "setting": "[2]", "value": 5.78}]}
{"molecule": "COc1ccc(S(=O)(=O)N2CCN(S(=O)(=O)C3CC3)C[C@@H]2C(=O)NO)cc1", "note": "[compound 23, (R)-4-(Cyclopropylsulfonyl)-N-hydroxy-1-((4-methoxyphenyl)sulfonyl)piperazine-2-carboxamide]", "values": [{"measurement": "pEC50", "setting": "[3]", "value": 7.41}, {"measurement": "pEC50", "setting": "[4]", "value": 7.96}, {"measurement": "protection against prothrombin degradation", "setting": "[5]", "value": "almost full protection"}, {"measurement": "TAT levels, mean", "setting": "[6]; single 20 mg/kg oral dose, all mice", "value": 18.6, "unit": "ng/mL"}, {"measurement": "TAT levels, mean", "setting": "[6]; single 20 mg/kg oral dose, mice that died during the experiment", "value": 29.6, "unit": "ng/mL"}, {"measurement": "TAT levels, mean", "setting": "[6]; single 20 mg/kg oral dose, the two survivors", "value": 2.1, "unit": "ng/mL"}, {"measurement": "TAT levels, mean", "setting": "[6]; two 20 mg/kg oral doses", "value": 13.7, "unit": "ng/mL"}, {"measurement": "logD", "setting": "physchem [7]", "value": 0.2}, {"measurement": "pEC50", "setting": "[8]", "value": 7.87}, {"measurement": "clotting time", "setting": "[9]", "value": 8.6, "unit": "min"}, {"measurement": "maximum clot firmness (MCF)", "setting": "[9]", "value": "60.3 [SD 0.6] mm"}, {"measurement": "embryo survival", "setting": "E. romani venom [10]", "value": "complete survival"}, {"measurement": "plasma prothrombin and fibrinogen profiles", "setting": "[11]; single 20 mg/kg oral dose, surviving mice", "value": "intact prothrombin and fibrinogen profiles"}, {"measurement": "plasma fibrinogen", "setting": "[11]; two 20 mg/kg oral doses", "value": "fibrinogen was detectable in all multiply dosed animals"}, {"measurement": "plasma prothrombin", "setting": "[11]; two 20 mg/kg oral doses", "value": "Prothrombin was detectable in three of the four surviving mice"}, {"measurement": "hepatocyte CLint", "setting": "in vitro [12]", "value": 13.3, "unit": "µL/min/1e6 cells"}, {"measurement": "protection against degradation of fibrinogen", "setting": "[13]", "value": "protected against the degradation of fibrinogen"}, {"measurement": "pEC50", "setting": "[14]", "value": 6.87}, {"measurement": "Human Protein binding (%free)", "setting": "human plasma protein", "value": 66, "unit": "%free"}, {"measurement": "pEC50", "setting": "[15]", "value": 8.41}, {"measurement": "AUC(0-inf)", "setting": "in vivo", "value": 450, "unit": "ng·h/mL"}, {"measurement": "AUC(0-t)", "setting": "in vivo", "value": 444, "unit": "ng·h/mL"}, {"measurement": "Cmax", "setting": "in vivo", "value": 311, "unit": "ng/mL"}, {"measurement": "MRT inf", "setting": "in vivo", "value": 1.61, "unit": "h"}, {"measurement": "MRT last", "setting": "in vivo", "value": 1.49, "unit": "h"}, {"measurement": "Tmax", "setting": "in vivo", "value": 30, "unit": "min"}, {"measurement": "concentration at 4 h", "setting": "in vivo", "value": 26.1, "unit": "ng/mL"}, {"measurement": "half-life", "setting": "in vivo", "value": 84.6, "unit": "min"}, {"measurement": "drug level at 4 h as share of C max", "setting": "[16]; 20 mg/kg oral, 4 h after dosing", "value": 8.4, "unit": "%"}, {"measurement": "time for drug levels to reach their peak", "setting": "[16]; oral dosing", "value": 30, "unit": "min"}, {"measurement": "solubility", "setting": "physchem [17]", "value": "> 1000", "unit": "µM"}, {"measurement": "survival times vs venom-only", "setting": "E. romani venom [18]; 90 μg venom i.p., single 20 mg/kg oral dose, p = 0.01, in words", "value": "significantly prolonged survival times"}, {"measurement": "mean survival time", "setting": "E. romani venom [18]; two dose oral regimen 20 mg/kg, 8 h experiment", "value": 420, "unit": "min"}, {"measurement": "time at which the mouse succumbed", "setting": "E. romani venom [18]; two dose oral regimen 20 mg/kg, one of five mice", "value": 180, "unit": "min"}, {"measurement": "pEC50", "setting": "[19]", "value": 8.33}, {"measurement": "pEC50", "setting": "[20]", "value": "7.41 to 8.33"}, {"measurement": "microsomal CLint", "setting": "in vitro [21]", "value": 8.3, "unit": "µL/min/mg"}, {"measurement": "pEC50", "setting": "[22]", "value": 7.64}]}
